The test system of the assay is trigeminocervical complex c-fos. In words: Trigeminocervical c-fos immunostaining after recurrent CSD, nasal IGF-1 with or without intravenous anti-CGRP antibody (Example 5). It is filed as in vivo, rat. The procedure: Migraine will be modeled using recurrent CSD (Grinberg et al., 2019; Won and Kraig 2019a,b; Won and Kraig, 2020). Briefly, the day before recurrent CSD, animals are anesthetized with inhalational isoflurane in oxygen (2-5%) and treated with intranasal IGF-1 (150 μg in 50 μl succinate buffer).
Anesthetized animals are then transferred to a standard stereotaxic head holder under 2-5% isoflurane inhalational anesthesia. Eyes are coated with Artificial Tears and head shaved, cleansed with Betadine, and 0.1 mL of 0.25% Bupivacaine is injected subcutaneously to either side of what will be a left of midline head incision made five minutes later. The underlying skull is scraped free of soft tissue and hemostasis achieved with bone wax. Two 1-2 mm craniotomies are drilled with a Dremel tool at +3 mm anterior to bregma and two mm lateral to the midline (for 0.5M KCl 10-30 nL pressure injections used to initiate CSD. A second craniotomy is placed six mm caudal to bregma and 4.5 mm lateral to the midline (for recording CSD. The surgery area is wiped with Betadine and incision closed with three wound clips. Animals are allowed to awaken and then returned to overnight standard Animal Facility Housing.
The next day (i.e., 20-24 hours later) animals are again be anesthetized as above with inhalational isoflurane and the left femoral vein cannulated for antibody infusion. Select groups of animals (see below) are treated with intravenous infusion either 1 mg/kg anti-CGRP (ab81887) or isotype IgG2a control in 0.5-0.6 ml normal saline. After infusions, the femoral incision is closed with wound clips.
Animals are stabilized for an hour under anesthesia (1.5% isoflurane in oxygen) after head sutures are removed, eyes coated with Artificial Tears and animals made ready for initiation and recording of CSD under deeper (5%) isoflurane in oxygen, which is then lowered back to 1.5% isoflurane in oxygen during CSD recordings. CSD is initiated as described above one to four hours after antibody infusion. All animals receive nine KCl injections. Then, isoflurane is raised to 5% and animals anesthetized with intraperitoneal ketamine and Xylazine followed quickly by euthanasia via intra-cardiac perfusion with 0.1 mL heparin (1,000 units/ml), then 250 ml of normal saline and finally 250 ml 4% paraformaldehyde in 0.2 M phosphate buffer. […]
2. […] All animals for nasal delivery of IGF-1 plus intravenous treatment (i.e., one ml saline or anti-CGRP antibody) followed by 90 minutes of evoked CSDs) were analyzed for trigeminal cervical complex c-fos immunostaining and trigeminal ganglion malondialdehyde immunostaining as previously described (Won and Kraig, 2020). […]

Turning to “IGF-1: human recombinant IGF-1 (#191-G1; R&D Systems), 150 μg in 50 μL sodium succinate buffer, delivered nose-to-brain”, where the note is “counts from −4.5 and 6.0 mm caudal to the obex”, the “reduction in trigeminocervical c-fos activation from recurrent CSD” value is 45%. The “ln ratio (IGF-1/sham) of trigeminocervical c-fos” value (nasal IGF-1 alone, original Won and Kraig 2020 data, n=5) was −0.56±0.08; the “ln ratio (IGF-1/sham) of trigeminocervical c-fos” value (nasal IGF-1 plus intravenous saline a day later, new data, n=3) is −0.548±0.16. Besides, under “nasal IGF-1 with or without subsequent intravenous saline, n=10”, the “ln ratio of trigeminocervical c-fos, combined groups” value is reported as −0.547±0.11.

Source of the values: US12324827B2, “Combination therapy for the treatment of migraines” (The University of Chicago, priority 2019, dated 2025).
